Assay results as given in patent US8962830B2, “Protein kinase inhibitors and methods of treatment” (The Walter and Eliza Hall Institute of Medical Research, priority 2010, dated 2015).
pIC50: −log10 of the molar value. Read-outs that look alike come from different tables or passages of the source.

Tests used:
[1] = system: LIM 1899 colon carcinoma derived epithelial cells; assay: Cellular activity, MTT cell growth assay, LIM1899; assay type: cell-based; details: 96 h, 4 days incubation
Method: (§1) A. Cells, Inhibitors and Incubation
(§2) 1. Cell Lines • LIM 1899 colon carcinoma derived epithelial cells were grown in RPMI+Adds^1+10% FCS. ^1 Additives for culture of LIM cell lines: 10 μM thioglycerol, 0.025 U/mL insulin, 1 μg/mL hydrocortisone
(§3) 2. Cell Plating in 96 Well Plate. • Assay medium: RPMI+Adds+5% FCS • Cells are trypsinized, washed once in assay medium and brought to the required concentration as described below: • Need 10^4 cells per well in 100 μL per well=10^5 per mL for plating • After washing, cells were resuspended in 5 mL and counted (1×T75 flask gives approx 2−3×10 eg^6 per mL). • Cells were then diluted to 10^5 cells/mL (need 10 mL minimum per plate). • Eg. Cell count in 5 mL is 25×10^5/mL • For 10^5/mL, dilute 1 mL to 25 mL • 100 μL per well cells were plated with multistepper pipette, over the whole plate. Plates were incubated overnight at 37° C.+5% CO2 incubator.
(§4) 3. Inhibitor Stocks • Inhibitors were dissolved in DMSO for 10 mM stocks. MW and amount of compound given was used to calculate the volume required for each. • 4× the highest concentration of the compound in the assay was calculated to prepare the working stocks. • eg 1st well final concentration in assay was 10 μM. • Therefore working stock was 40 μM • Stock solution is 10 mM→40 μM=4 μl in 1.0 mL assay medium for working stock.
(§5) 4. Plate Plan: • Rows A,B: Inhibitor 1 • Rows C,D: Inhibitor 2 • Rows E,F: Inhibitor 3 • Row G: RPMI+Adds+5% FCS (=maximum growth) • Row H: RPMI+Adds serum free (=minimum growth)
(§6) 5. Titration of Inhibitors • A 96 well plate was used to titrate the inhibitors for each assay plate: • 150 μL assay medium was added to each well of a 96 well plate. • 150 μL of Inhibitor 1 working stock was added wells A1 and B1. • Repeated with Inhibitor 2 to C1 and D1 • Repeated with Inhibitor 3 to E1 and F1 • Serial ½ dilutions were performed across the plate, rows A to F, left to right with 150 μL.
(§7) 6. Transfer Titrated Inhibitors to Cell Assay Plate: Final Volume 200 μl • Using a multichannel pipette, 100 μL was transferred from the corresponding wells of the titration plate to the cell assay plate, rows A to G. • Row H: medium was carefully removed from the cell wells with a 200 μL tip, and replaced with 200 μL serum free medium.
(§8) 7. Incubation • Plates were incubated for 4 days at 37° C. with 5% CO2.
(§9) B. Use of MTT to Measure Cell Growth
(§10) 1. MTT Preparation and Storage • MTT Sigma M-2128 5 g • Dissolved in PBS, at 5 mg/mL • 5 g bottle dissolved in 1 liter PBS (some impurities remain) • Filter sterilized and aliquoted in 50 mL tubes, stored at −20° C. • As needed, 50 mL tube was thawed and aliquoted in 5 mL tubes, re-stored at −20° C. • Stable at 4° C. for 1 month (unstable if left at 37° C. too long while thawing)
(§11) 2. MTT Solvent • a. 1M HCl: • Mixed 44.6 mL conc HCl (11.2M) in 500 mL DDW • b. Acidified isopropanol (Isopropanol with 0.04 N HCl): • Mixed 20 mL 1M HCl with 480 mL isopropanol (Propan-2-ol, iso-Propyl Alcohol)
(§12) 3. MTT Assay • After cell incubation (above): • Added 10 μL MTT to each well. • Incubated 4 hrs in 37° C. incubator. • Spun plates, 5 min, 1500 rpm. • Carefully flicked out medium into the sink, without disturbing the crystals. • Added 200 μL acidified isopropanol per well. • Placed on plate shaker, RT, speed 6.5, for 10 min-30 min. • Read OD of plates on Thermo Multiskan Ex, at 560/690 nm.
(§13) • Mosmann, T. • Rapid colorimetric assay for cellular growth and survival: application to proliferation and cytotoxic assays. Journal of Immunological Methods (1983), 65:55-63. Table with Examples of Cellular Data
(§14) The compounds in this invention display cellular activities against a range of tumour or transformed cell lines in particular colon cancer cell lines such as LIM1215, LIM2537 and LIM1899.

LIM2537 = assay: Cellular activity, MTT cell growth assay, LIM2537; assay type: cell-based; details: 96 h, 4 days incubation
Method: as §1, §2, §3, §4, §5, §6, §7, §8, §9, §10, §11, §12, §13, §14

RasNIH3T3 = assay: Cellular activity, MTT cell growth assay, RasNIH3T3; assay type: cell-based; details: 96 h, read-out: RasNIH3T3 (cellular data)
LIM1215 = assay: Cellular activity, MTT cell growth assay, LIM1215; assay type: cell-based; details: LIM1215, 96 h, read-out: LIM1215 (cellular data)
Method: as §1, §2, §3, §4, §5, §6, §7, §8, §9, §10, §11, §12, §13, §14

[2] = target: T1, Src recombinant enzyme, N-terminally His6 tagged full-length human protein (Homo sapiens, UniProt P12931); assay: SRC kinase inhibition assay (AlphaScreen); assay type: biochemical; details: 80 μM ATP, 90 minutes at 30 degree Celsius
T1 construct: Src recombinant enzyme was purchased as N-terminally His6 tagged full-length human protein; His6 (N); purchased
Method: Protocol for SRC Kinase Inhibition Assay. Compounds of the invention were tested for in vitro activity in the following assay: A biotin labeled peptide was used as substrate (amino acid sequence: Biotin-[…]). Src recombinant enzyme was purchased as N-terminally His6 tagged full-length human protein. The 15 μL assay reactions were run in Greiner brand white 384-well low volume plates. […] Compounds were added in a volume of 100 nL from dilution series made up in DMSO, positive and negative control reactions receiving the same volume DMSO without compounds. The plates were sealed with adhesive seals and incubated for 90 minutes at 30 degree Celsius. The reactions were stopped with the detection reagents added at the same time. Product formation was quantified as photochemiluminescence between PerkinElmer AlphaScreenTM beads, using Streptavidin-coated donor and anti-phosphotyrosine (P-[…]) acceptor beads. […] Plates were incubated for 5 hours before being read on a PerkinElmer EnVisionTM plate reader in HTS AlphascreenTM mode. IC50 values were obtained by calculating percent inhibition (% I) for each reaction relative to controls on the same plate (% [SMILES] where CN/CP are the averages of the negative/positive reactions, respectively), then fitting the % I data vs. compound concentration [I] to % I=([…])))) where A is the lower asymptote, B is the upper asymptote, C is the IC50 value, and D is the slope factor.

[3] = system: SFKs (Src family kinases); details: reported; no discrimination between family members; cited from earlier work
Solubility = assay type: physicochemical

T1 sequence (P12931 whole entry): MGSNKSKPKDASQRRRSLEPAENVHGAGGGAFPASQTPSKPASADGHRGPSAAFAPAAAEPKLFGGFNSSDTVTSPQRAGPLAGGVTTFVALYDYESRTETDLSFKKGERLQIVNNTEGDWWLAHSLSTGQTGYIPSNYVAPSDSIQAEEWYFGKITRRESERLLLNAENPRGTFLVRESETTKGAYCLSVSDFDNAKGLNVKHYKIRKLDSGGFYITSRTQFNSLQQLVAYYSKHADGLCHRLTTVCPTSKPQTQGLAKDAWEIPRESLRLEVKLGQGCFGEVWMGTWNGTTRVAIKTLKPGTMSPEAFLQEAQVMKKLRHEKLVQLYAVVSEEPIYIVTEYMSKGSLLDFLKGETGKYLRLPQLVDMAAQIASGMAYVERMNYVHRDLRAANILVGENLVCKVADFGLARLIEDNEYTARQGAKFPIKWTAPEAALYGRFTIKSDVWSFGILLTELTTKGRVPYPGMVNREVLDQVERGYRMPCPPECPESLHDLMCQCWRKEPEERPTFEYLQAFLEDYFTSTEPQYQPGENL

| SMILES | pIC50 [1] | pIC50 (RasNIH3T3; MTT, 4 days incubation) | pIC50 (LIM1215; MTT, 4 days incubation) | pIC50 [2] | further results |
| --- | --- | --- | --- | --- | --- |
| CC(C)(CNC(=O)c1ccccc1)n1nc(-c2ccc(Cl)cc2)c2c(N)ncnc21 [74 (compound 74F)] | < 4.70 | – | – | – | pIC50 (LIM2537): < 5.00 |
| Cc1nc(Nc2ncc(C(=O)Nc3c(C)cccc3Cl)s2)cc(N2CCN(CCO)CC2)n1 [Dasatinib, reference compound] | 5.92 | 4.92 to 5.05 | 5.70 | – | – |
| Cc1ccc(-c2nn(C(C)(C)CNC(=O)c3ccccc3)c3ncnc(N)c23)cc1 [Example 11] | 5.77 | – | – | 6.00 to 7.00 | – |
| Cc1ccc(-c2nn(C(C)(C)CNC(=O)c3ccccn3)c3ncnc(N)c23)cc1 [Example 12] | 6.77 | 6.96 | 6.77 | 7.00 to 9.00 | pIC50 (LIM2537): 6.77 |
| Cc1ccc(-c2nn(C(C)(C)CNC(=O)c3cc(Br)ccn3)c3ncnc(N)c23)cc1 [Example 42] | – | 5.72 | 6.05 | 7.00 to 9.00 | – |
| Cc1ccc(-c2nn(C(C)(C)CNC(=O)c3cnccn3)c3ncnc(N)c23)cc1 [Example 56] | – | 5.79 | 6.40 | 7.00 to 9.00 | – |
| Cc1ccc(-c2nn(C(C)(C)CNC(=O)c3cncnc3)c3ncnc(N)c23)cc1 [Example 57] | – | < 4.70 | 5.80 | 5.00 to 6.00 | – |
| Cc1ccc(-c2nn(C(C)(C)CNS(=O)(=O)c3ccccc3)c3ncnc(N)c23)cc1 [Example 59] | – | < 4.70 | 5.51 | 6.00 to 7.00 | – |
| Cc1ccc(-c2nn(C(C)(C)CNC(=O)c3cccnc3)c3ncnc(N)c23)cc1 [Example 60] | – | 4.77 | 5.72 | 6.00 to 7.00 | – |
| COc1ccnc(C(=O)NCC(C)(C)n2nc(-c3ccc(C)cc3)c3c(N)ncnc32)c1 [Example 61] | 5.80 | 5.74 | 6.10 | 7.00 to 9.00 | – |
| Cc1ccc(-c2nn(C(C)(C)CNC(=O)c3ccncn3)c3ncnc(N)c23)cc1 [Example 62] | – | 6.46 | 6.60 | 7.00 to 9.00 | – |
| Cc1ccc(-c2nn(C(C)(C)CNC(=O)c3cc(Cl)ccn3)c3ncnc(N)c23)cc1 [Example 63] | 5.77 | 5.20 | 5.59 | 6.00 to 7.00 | – |
| Cc1ccc(-c2nn(C(C)(C)CNC(=O)c3cscn3)c3ncnc(N)c23)cc1 [Example 64] | 6.06 | 6.20 | – | 7.00 to 9.00 | pIC50 (LIM2537): 5.96 |
| Cc1ccc(-c2nn(C(C)(C)CNC(=O)c3cc(C)ccn3)c3ncnc(N)c23)cc1 [Example 65] | 6.05 | 5.78 | 6.02 | 6.00 to 7.00 | – |
| Cc1ccc(-c2nn(C(C)(C)CNC(=O)c3cc(-c4ccccc4)ccn3)c3ncnc(N)c23)cc1 [Example 66] | 6.51 | 6.30 | 6.28 | 7.00 to 9.00 | – |
| Cc1ccc(-c2nn(C(C)(C)CNC(=O)c3ncccc3C)c3ncnc(N)c23)cc1 [Example 71] | 5.51 | – | – | < 5.00 | – |
| Cc1ccc(-c2nn(C(C)(C)CNC(=O)c3cccc(C)n3)c3ncnc(N)c23)cc1 [Example 73] | 5.96 | – | – | 5.00 to 6.00 | – |
| CC(C)(CNC(=O)c1ccccn1)n1nc(-c2ccc(Cl)cc2)c2c(N)ncnc21 [Example 75] | 6.05 | – | – | 7.00 to 9.00 | pIC50 (LIM2537): 5.80 |
| Cc1ccc(-c2nn(C(C)(C)CNC(=N)c3ccccc3)c3ncnc(N)c23)cc1 [Example 76] | 4.72 | – | – | 5.00 to 6.00 | pIC50 (LIM2537): < 5.00 |
| Cc1ccc(-c2nn(C(C)(C)CNC(=N)c3ccccn3)c3ncnc(N)c23)cc1 [Example 77] | – | – | – | 7.00 to 9.00 | pIC50 (LIM2537): < 5.00 |
| Cc1ccc(-c2nn(C(C)(C)C)c3ncnc(N)c23)cc1 [PP1, reference compound] | – | – | – | – | pIC50 (RasNIH3T3): 5.03; inhibition of SFKs [3]: potent inhibitors; solubility (Solubility): poorly soluble; pIC50 (LIM1215): 6.60 |
| CC(C)(C)n1nc(-c2ccc(Cl)cc2)c2c(N)ncnc21 [PP2] | – | – | – | – | inhibition of SFKs [3]: potent inhibitors; solubility (Solubility): poorly soluble |
